Data taken from patent US8076487B2, “Pyridone derivative and herbicide” (Kumiai Chemical Industry Co., Ltd., priority 2006, dated 2011).

Key:
Assay type in all cases: in vivo
[1] = test system: Japanese bulrush (Scirpus juncoides Roxb.); assay: Test Example 1: herbicidal effect by soil application to paddy field; settings: paddy field soil application; active ingredient 1,000 g per 1 hectare; wettable powder added dropwise to water surface the day after sowing; examined on the 21st day after application
In short: (§1)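 Plants were sown in flooded (3 cm) paddy soil and evaluated for herbicidal effect 21 days after soil application in a greenhouse.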

[2] = test system: early watergrass (Echinochloa oryzicola Vasing); assay: as above; settings: paddy field soil application; active ingredient 1,000 g per 1 hectare; wettable powder added dropwise to water surface the day after sowing; examined on the 21st day after application
In short: as §1

[3] = test system: heartshape false pickerelweed (Monochoria vaginalis (Burm.f.) C.Presl); assay: as above; settings: paddy field soil application; active ingredient 1,000 g per 1 hectare; wettable powder added dropwise to water surface the day after sowing; examined on the 21st day after application
In short: as §1

[4] = test system: barnyardgrass (Echinochloa crus-galli (L.) P. Beauv. var. crus-galli); assay: Test Example 2: herbicidal effect by soil application to upland field; settings: soil surface spray, upland field soil, 1,000 g active ingredient per hectare, 21st day after application
In short: (§2)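 Dose was 1,000 g active ingredient per hectare, applied as a wettable powder diluted in water and sprayed evenly over the soil of sown, covered pots at a 1,000 L/ha equivalent. Effect was judged by a standard scale 21 d later under greenhouse conditions.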

[5] = test system: green foxtail (Setaria viridis (L.) P. Beauv.); assay: as above; settings: soil surface spray, upland field soil, 1,000 g active ingredient per hectare, 21st day after application
In short: as §2

[6] = test system: slender amaranth (Amaranthus viridis L.); assay: as above; settings: soil surface spray, upland field soil, 1,000 g active ingredient per hectare, 21st day after application
In short: as §2

[7] = test system: velvetleaf (Abutilon theophrasti medicus); assay: as above; settings: soil surface spray, upland field soil, 1,000 g active ingredient per hectare, 21st day after application
In short: as §2

[8] = test system: barnyardgrass (Echinochloa crus-galli (L.) P. Beauv. var. crus-galli); assay: Test Example 3: herbicidal effect by application to upland field (foliage treatment); settings: foliage treatment, 1,000 g active ingredient per 1 hectare, 14th day after application, greenhouse
In short: (§3)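 Post-emergence spray at 1,000 g AI/ha of wettable powder in water (1,000 L/ha), onto seedlings grown 2 weeks in greenhouse field-soil pots. Graded day 14.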

[9] = test system: green foxtail (Setaria viridis (L.) P. Beauv.); assay: as above; settings: foliage treatment, 1,000 g active ingredient per 1 hectare, 14th day after application, greenhouse
In short: as §3

[10] = test system: slender amaranth (Amaranthus viridis L.); assay: as above; settings: foliage treatment, 1,000 g active ingredient per 1 hectare, 14th day after application, greenhouse
In short: as §3

[11] = test system: velvetleaf (Abutilon theophrasti medicus); assay: as above; settings: foliage treatment, 1,000 g active ingredient per 1 hectare, 14th day after application, greenhouse
In short: as §3

| Compound | herbicidal effect, Scirpus juncoides Roxb. [1] | herbicidal effect, Echinochloa oryzicola Vasing [2] | herbicidal effect, Monochoria vaginalis (Burm. f.) C. Presl [3] | herbicidal effect (index), Barnyardgrass [4] | herbicidal effect (index), Green Foxtail [5] | herbicidal effect (index), Slender Amaranth [6] | herbicidal effect (index), Velvetleaf [7] | herbicidal effect, Barnyardgrass [8] | herbicidal effect, Green Foxtail [9] | herbicidal effect, Slender Amaranth [10] | herbicidal effect, Velvetleaf [11] |
| --- | --- | --- | --- | --- | --- | --- | --- | --- | --- | --- | --- |
| CCCn1c(C(F)(F)F)ccc(C(=O)c2cnn(C)c2OC(=O)c2ccccc2)c1=O [IV-4] | 5 (90% or more of herbicidal effect and crop phytotoxicity) | 5 (90% or more of herbicidal effect and crop phytotoxicity) | 5 (90% or more of herbicidal effect and crop phytotoxicity) | 5 (90% or more of herbicidal effect and crop phytotoxicity) | 5 (90% or more of herbicidal effect and crop phytotoxicity) | 5 (90% or more of herbicidal effect and crop phytotoxicity) | 5 (90% or more of herbicidal effect and crop phytotoxicity) | 5 (90% or more of herbicidal effect and crop phytotoxicity) | 4 (70 to less than 90% of herbicidal effect and crop phytotoxicity) | 5 (90% or more of herbicidal effect and crop phytotoxicity) | 5 (90% or more of herbicidal effect and crop phytotoxicity) |
| Cn1c(C(F)(F)C(F)(F)F)ccc(C(=O)C2=C(O)CCCC2=O)c1=O [I-227] | 5 (90% or more of herbicidal effect and crop phytotoxicity) | 5 (90% or more of herbicidal effect and crop phytotoxicity) | 5 (90% or more of herbicidal effect and crop phytotoxicity) | 4 (70 to less than 90% of herbicidal effect and crop phytotoxicity) | 5 (90% or more of herbicidal effect and crop phytotoxicity) | 5 (90% or more of herbicidal effect and crop phytotoxicity) | 5 (90% or more of herbicidal effect and crop phytotoxicity) | 3 (50 to less than 70% of herbicidal effect and crop phytotoxicity) | 5 (90% or more of herbicidal effect and crop phytotoxicity) | 5 (90% or more of herbicidal effect and crop phytotoxicity) | 5 (90% or more of herbicidal effect and crop phytotoxicity) |
| CS(=O)(=O)CCn1c(C(F)(F)F)ccc(C(=O)C2=C(O)C3CCC(C3)C2=O)c1=O (centres unmarked) [III-30] | – | – | – | 5 (90% or more of herbicidal effect and crop phytotoxicity) | 5 (90% or more of herbicidal effect and crop phytotoxicity) | 5 (90% or more of herbicidal effect and crop phytotoxicity) | 5 (90% or more of herbicidal effect and crop phytotoxicity) | 5 (90% or more of herbicidal effect and crop phytotoxicity) | 5 (90% or more of herbicidal effect and crop phytotoxicity) | 5 (90% or more of herbicidal effect and crop phytotoxicity) | 5 (90% or more of herbicidal effect and crop phytotoxicity) |
| C=CCn1c(C(F)(F)F)ccc(C(=O)C2=C(O)C(C)(C)C(=O)C(C)(C)C2=O)c1=O [II-42] | – | – | – | 5 (90% or more of herbicidal effect and crop phytotoxicity) | 3 (50 to less than 70% of herbicidal effect and crop phytotoxicity) | 5 (90% or more of herbicidal effect and crop phytotoxicity) | 5 (90% or more of herbicidal effect and crop phytotoxicity) | 5 (90% or more of herbicidal effect and crop phytotoxicity) | 3 (50 to less than 70% of herbicidal effect and crop phytotoxicity) | 5 (90% or more of herbicidal effect and crop phytotoxicity) | 5 (90% or more of herbicidal effect and crop phytotoxicity) |
